# Data published in PubChem BioAssay (NCI).
#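 All cell lines were grown in 96-well plates and treated with compound for 48 hours. Definition used: TGI = concentration required for complete inhibition of growth.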
# Columns and labels:
# Assay in all cases: NCI-60 cell line screen, 48 h
# NCI/ADR-RES ovarian = test system: NCI/ADR-RES ovarian
# SR leukemia = test system: SR leukemia
# RXF 393 renal = test system: RXF 393 renal
# LOX IMVI melanoma = test system: LOX IMVI melanoma
# NCI-H226 lung = test system: NCI-H226 lung
# OVCAR-5 ovarian = test system: OVCAR-5 ovarian
# EKVX NSCLC = test system: EKVX NSCLC
# MDA-N = test system: MDA-N
# HS 578T breast = test system: HS 578T breast
# M14 melanoma = test system: M14 melanoma
# OVCAR-3 ovarian = test system: OVCAR-3 ovarian
# PC-3 prostate = test system: PC-3 prostate
# NCI-H522 lung = test system: NCI-H522 lung
# OVCAR-8 ovarian = test system: OVCAR-8 ovarian
# MALME-3M melanoma = test system: MALME-3M melanoma
# SK-MEL-28 melanoma = test system: SK-MEL-28 melanoma
# SN12C renal = test system: SN12C renal
# HCT-116 colon = test system: HCT-116 colon
# HT29 colon = test system: HT29 colon
# SNB-19 CNS = test system: SNB-19 CNS
# CAKI-1 renal = test system: CAKI-1 renal
# HCC-2998 colon = test system: HCC-2998 colon
# IGROV1 ovarian = test system: IGROV1 ovarian
# KM12 colon = test system: KM12 colon
# NCI-H460 lung = test system: NCI-H460 lung
# SF-295 CNS = test system: SF-295 CNS
# SK-MEL-2 melanoma = test system: SK-MEL-2 melanoma
# HCT-15 colon = test system: HCT-15 colon
# SK-MEL-5 melanoma = test system: SK-MEL-5 melanoma
# SF-539 CNS = test system: SF-539 CNS
# 786-0 renal = test system: 786-0 renal
# CCRF-CEM leukemia = test system: CCRF-CEM leukemia
# BT-549 breast = test system: BT-549 breast
# A498 renal = test system: A498 renal
# DU-145 prostate = test system: DU-145 prostate
# OVCAR-4 ovarian = test system: OVCAR-4 ovarian
# MDA-MB-435 = test system: MDA-MB-435
# HOP-62 NSCLC = test system: HOP-62 NSCLC
# SF-268 CNS = test system: SF-268 CNS
# HOP-92 NSCLC = test system: HOP-92 NSCLC
# UO-31 renal = test system: UO-31 renal
# HL-60(TB) leukemia = test system: HL-60(TB) leukemia
# SK-OV-3 ovarian = test system: SK-OV-3 ovarian
# U251 CNS = test system: U251 CNS
# NCI-H23 lung = test system: NCI-H23 lung
# TK-10 renal = test system: TK-10 renal
# MCF7 breast = test system: MCF7 breast
# ACHN renal = test system: ACHN renal
# K-562 leukemia = test system: K-562 leukemia
# SNB-75 CNS = test system: SNB-75 CNS
# UACC-257 melanoma = test system: UACC-257 melanoma
# UACC-62 melanoma = test system: UACC-62 melanoma
# MDA-MB-231 breast = test system: MDA-MB-231 breast
# COLO 205 colon = test system: COLO 205 colon
# RPMI-8226 leukemia = test system: RPMI-8226 leukemia
# SW-620 colon = test system: SW-620 colon
# A549 NSCLC = test system: A549 NSCLC
# MOLT-4 leukemia = test system: MOLT-4 leukemia
# T-47D breast = test system: T-47D breast
structure (smiles),measurement,setting,value
CC(C)[N+]([O-])(CCCNc1c2ccccc2nc2cccc([N+](=O)[O-])c12)C(C)C,TGI,NCI/ADR-RES ovarian,8760 nM
same,TGI,SR leukemia,1150 nM
same,TGI,RXF 393 renal,403 nM
same,TGI,LOX IMVI melanoma,427 nM
same,TGI,NCI-H226 lung,2560 nM
same,TGI,OVCAR-5 ovarian,1310 nM
same,TGI,EKVX NSCLC,528 nM
same,TGI,MDA-N,137 nM
same,TGI,HS 578T breast,402 nM
same,TGI,M14 melanoma,305 nM
same,TGI,OVCAR-3 ovarian,1070 nM
same,TGI,PC-3 prostate,11500 nM
same,TGI,NCI-H522 lung,147 nM
same,TGI,OVCAR-8 ovarian,628 nM
same,TGI,MALME-3M melanoma,106 nM
same,TGI,SK-MEL-28 melanoma,175 nM
same,TGI,SN12C renal,862 nM
same,TGI,HCT-116 colon,3940 nM
same,TGI,HT29 colon,1930 nM
same,TGI,SNB-19 CNS,5170 nM
same,TGI,CAKI-1 renal,6200 nM
same,TGI,HCC-2998 colon,22.7 nM
same,TGI,IGROV1 ovarian,488 nM
same,TGI,KM12 colon,2530 nM
same,TGI,NCI-H460 lung,1780 nM
same,TGI,SF-295 CNS,904 nM
same,TGI,SK-MEL-2 melanoma,1240 nM
same,TGI,HCT-15 colon,1580 nM
same,TGI,SK-MEL-5 melanoma,62.8 nM
same,TGI,SF-539 CNS,240 nM
same,TGI,786-0 renal,10100 nM
same,TGI,CCRF-CEM leukemia,1980 nM
same,TGI,BT-549 breast,221 nM
same,TGI,A498 renal,289 nM
same,TGI,DU-145 prostate,133 nM
same,TGI,OVCAR-4 ovarian,433 nM
same,TGI,MDA-MB-435,75.8 nM
same,TGI,HOP-62 NSCLC,1770 nM
same,TGI,SF-268 CNS,3140 nM
same,TGI,HOP-92 NSCLC,196 nM
same,TGI,UO-31 renal,1350 nM
same,TGI,HL-60(TB) leukemia,2690 nM
same,TGI,SK-OV-3 ovarian,2080 nM
same,TGI,U251 CNS,1190 nM
same,TGI,NCI-H23 lung,168 nM
same,TGI,TK-10 renal,1400 nM
same,TGI,MCF7 breast,14900 nM
same,TGI,ACHN renal,440 nM
same,TGI,K-562 leukemia,> 100000 nM
same,TGI,SNB-75 CNS,629 nM
same,TGI,UACC-257 melanoma,333 nM
same,TGI,UACC-62 melanoma,356 nM
same,TGI,MDA-MB-231 breast,441 nM
same,TGI,COLO 205 colon,57.7 nM
same,TGI,RPMI-8226 leukemia,87.5 nM
same,TGI,SW-620 colon,4900 nM
same,TGI,A549 NSCLC,2530 nM
c1csc(-c2nn3c(C45CC6CC(CC(C6)C4)C5)nnc3s2)c1,TGI,NCI/ADR-RES ovarian,> 100000 nM
same,TGI,SR leukemia,> 100000 nM
same,TGI,RXF 393 renal,> 100000 nM
same,TGI,LOX IMVI melanoma,> 100000 nM
same,TGI,NCI-H226 lung,> 100000 nM
same,TGI,OVCAR-5 ovarian,> 100000 nM
same,TGI,EKVX NSCLC,> 100000 nM
same,TGI,MDA-N,> 100000 nM
same,TGI,HS 578T breast,> 100000 nM
same,TGI,M14 melanoma,> 100000 nM
same,TGI,OVCAR-3 ovarian,> 100000 nM
same,TGI,PC-3 prostate,> 100000 nM
same,TGI,NCI-H522 lung,> 100000 nM
same,TGI,OVCAR-8 ovarian,> 100000 nM
same,TGI,MALME-3M melanoma,> 100000 nM
same,TGI,SK-MEL-28 melanoma,> 100000 nM
same,TGI,SN12C renal,> 100000 nM
same,TGI,HCT-116 colon,> 100000 nM
same,TGI,HT29 colon,> 100000 nM
same,TGI,SNB-19 CNS,> 100000 nM
same,TGI,CAKI-1 renal,> 100000 nM
same,TGI,HCC-2998 colon,> 100000 nM
same,TGI,MOLT-4 leukemia,> 100000 nM
same,TGI,IGROV1 ovarian,> 100000 nM
same,TGI,NCI-H460 lung,> 100000 nM
same,TGI,SF-295 CNS,> 100000 nM
same,TGI,SK-MEL-2 melanoma,> 100000 nM
same,TGI,HCT-15 colon,> 100000 nM
same,TGI,SK-MEL-5 melanoma,> 100000 nM
same,TGI,SF-539 CNS,> 100000 nM
same,TGI,786-0 renal,> 100000 nM
same,TGI,CCRF-CEM leukemia,> 100000 nM
same,TGI,A498 renal,> 100000 nM
same,TGI,DU-145 prostate,> 100000 nM
same,TGI,OVCAR-4 ovarian,> 100000 nM
same,TGI,MDA-MB-435,> 100000 nM
same,TGI,HOP-62 NSCLC,> 100000 nM
same,TGI,SF-268 CNS,> 100000 nM
same,TGI,HOP-92 NSCLC,> 100000 nM
same,TGI,UO-31 renal,> 100000 nM
same,TGI,HL-60(TB) leukemia,> 100000 nM
same,TGI,SK-OV-3 ovarian,> 100000 nM
same,TGI,U251 CNS,> 100000 nM
same,TGI,NCI-H23 lung,> 100000 nM
same,TGI,ACHN renal,> 100000 nM
same,TGI,K-562 leukemia,> 100000 nM
same,TGI,SNB-75 CNS,> 100000 nM
same,TGI,UACC-257 melanoma,> 100000 nM
same,TGI,T-47D breast,> 100000 nM
same,TGI,UACC-62 melanoma,> 100000 nM
same,TGI,MDA-MB-231 breast,> 100000 nM
same,TGI,COLO 205 colon,> 100000 nM
same,TGI,RPMI-8226 leukemia,> 100000 nM
same,TGI,SW-620 colon,> 100000 nM
same,TGI,A549 NSCLC,> 100000 nM
